Experimental data from ChEMBL document CHEMBL4145521, “Regioselective synthesis of 3,4-diaryl-5-unsubstituted isoxazoles, analogues of natural cytostatic combretastatin A4” (Eur J Med Chem, 2018).

Tests used:
Type in all cases: functional
[1] = tested on: HCT-15; assay: Cytotoxicity against human HCT15 cells assessed as cell growth at 0.01 uM incubated for 48 hrs by sulforhodamine B assay relative to control; conditions: HCT-15, 48 h, read-out: Activity
[2] = tested on: SK-OV-3; assay: Cytotoxicity against human SKOV3 cells incubated for 48 hrs by sulforhodamine B assay; conditions: SK-OV-3, 48 h
[3] = tested on: M14; assay: Cytotoxicity against human M14 cells assessed as cell growth at 0.01 uM incubated for 48 hrs by sulforhodamine B assay relative to control; conditions: M14, 48 h, read-out: Activity
[4] = tested on: HCT-116; assay: Cytotoxicity against human HCT116 cells assessed as cell growth at 0.01 uM incubated for 48 hrs by sulforhodamine B assay relative to control; conditions: HCT-116, 48 h, read-out: Activity
[5] = tested on: NCI-H226; assay: Cytotoxicity against human NCI-H226 cells assessed as cell growth at 10 uM incubated for 48 hrs by sulforhodamine B assay relative to control; conditions: NCI-H226, 48 h, read-out: Activity
[6] = tested on: NCI-H23; assay: Cytotoxicity against human NCI-H23 cells assessed as cell growth at 10 uM incubated for 48 hrs by sulforhodamine B assay relative to control; conditions: NCI-H23, 48 h, read-out: Activity
[7] = tested on: TK-10; assay: Cytotoxicity against human TK10 cells incubated for 48 hrs by sulforhodamine B assay; conditions: TK-10, 48 h
[8] = tested on: ACHN; assay: Cytotoxicity against human ACHN cells assessed as cell growth at 0.01 uM incubated for 48 hrs by sulforhodamine B assay relative to control; conditions: read-out: Activity
[9] = tested on: MCF7; assay: Cytotoxicity against human MCF7 cells assessed as cell growth at 100 uM incubated for 48 hrs by sulforhodamine B assay relative to control; conditions: MCF7, 48 h, read-out: Activity
[10] = tested on: MDA-MB-468; assay: Cytotoxicity against human MDA-MB-468 cells assessed as cell growth at 10 uM incubated for 48 hrs by sulforhodamine B assay relative to control; conditions: MDA-MB-468, 48 h, read-out: Activity
[11] = tested on: MDA-MB-435; assay: Cytotoxicity against human MDA-MB-435 cells incubated for 48 hrs by sulforhodamine B assay; conditions: MDA-MB-435, 48 h
[12] = tested on: SK-MEL-28; assay: Cytotoxicity against human SK-MEL-28 cells assessed as cell growth at 100 uM incubated for 48 hrs by sulforhodamine B assay relative to control; conditions: SK-MEL-28, 48 h, read-out: Activity
[13] = tested on: SN12C; assay: Cytotoxicity against human SN12C cells assessed as cell growth at 0.1 uM incubated for 48 hrs by sulforhodamine B assay relative to control; conditions: read-out: Activity
[14] = tested on: K562; assay: Cytotoxicity against human K562 cells incubated for 48 hrs by sulforhodamine B assay; conditions: K562, 48 h
[15] = tested on: OVCAR-5; assay: Cytotoxicity against human OVCAR5 cells assessed as cell growth at 100 uM incubated for 48 hrs by sulforhodamine B assay relative to control; conditions: OVCAR-5, 48 h, read-out: Activity
[16] = tested on: M14; assay: Cytotoxicity against human M14 cells assessed as cell growth at 10 uM incubated for 48 hrs by sulforhodamine B assay relative to control; conditions: M14, 48 h, read-out: Activity
[17] = tested on: SF-295; assay: Cytotoxicity against human SF295 cells assessed as cell growth at 10 uM incubated for 48 hrs by sulforhodamine B assay relative to control; conditions: SF-295, 48 h, read-out: Activity
[18] = tested on: MDA-MB-231; assay: Cytotoxicity against human MDA-MB-231 cells assessed as cell growth at 10 uM incubated for 48 hrs by sulforhodamine B assay relative to control; conditions: MDA-MB-231, 48 h, read-out: Activity
[19] = tested on: PC-3; assay: Cytotoxicity against human PC3 cells assessed as cell growth at 10 uM incubated for 48 hrs by sulforhodamine B assay relative to control; conditions: PC-3, 48 h, read-out: Activity
[20] = tested on: NCI-H460; assay: Cytotoxicity against human NCI-H460 cells assessed as cell growth at 1 uM incubated for 48 hrs by sulforhodamine B assay relative to control; conditions: NCI-H460, 48 h, read-out: Activity
[21] = tested on: OVCAR-4; assay: Cytotoxicity against human OVCAR4 cells assessed as cell growth at 10 uM incubated for 48 hrs by sulforhodamine B assay relative to control; conditions: OVCAR-4, 48 h, read-out: Activity
[22] = tested on: LOX IMVI; assay: Cytotoxicity against human LOXIMVI cells assessed as cell growth at 100 uM incubated for 48 hrs by sulforhodamine B assay relative to control; conditions: read-out: Activity
[23] = tested on: BT-549; assay: Cytotoxicity against human BT549 cells incubated for 48 hrs by sulforhodamine B assay; conditions: BT-549, 48 h
[24] = tested on: OVCAR-3; assay: Cytotoxicity against human OVCAR3 cells assessed as cell growth at 1 uM incubated for 48 hrs by sulforhodamine B assay relative to control; conditions: OVCAR-3, 48 h, read-out: Activity
[25] = tested on: SNB-75; assay: Cytotoxicity against human SNB75 cells assessed as cell growth at 0.01 uM incubated for 48 hrs by sulforhodamine B assay relative to control; conditions: SNB-75, 48 h, read-out: Activity
[26] = tested on: SNB-75; assay: Cytotoxicity against human SNB75 cells assessed as cell growth at 10 uM incubated for 48 hrs by sulforhodamine B assay relative to control; conditions: SNB-75, 48 h, read-out: Activity
[27] = tested on: K562; assay: Cytotoxicity against human K562 cells assessed as cell growth at 10 uM incubated for 48 hrs by sulforhodamine B assay relative to control; conditions: K562, 48 h, read-out: Activity
[28] = tested on: SW-620; assay: Cytotoxicity against human SW620 cells assessed as cell growth at 0.1 uM incubated for 48 hrs by sulforhodamine B assay relative to control; conditions: SW-620, 48 h, read-out: Activity
[29] = tested on: PC-3; assay: Cytotoxicity against human PC3 cells assessed as cell growth at 0.1 uM incubated for 48 hrs by sulforhodamine B assay relative to control; conditions: PC-3, 48 h, read-out: Activity
[30] = tested on: HL-60(TB); assay: Cytotoxicity against human HL-60(TB) cells assessed as cell growth at 1 uM incubated for 48 hrs by sulforhodamine B assay relative to control; conditions: HL-60, 48 h, read-out: Activity
[31] = tested on: HOP-62; assay: Cytotoxicity against human HOP62 cells assessed as cell growth at 100 uM incubated for 48 hrs by sulforhodamine B assay relative to control; conditions: HOP-62, 48 h, read-out: Activity
[32] = read-out: LC50 (the source's name)
[33] = read-out: pLC50 (the source's name) (converted)

SMILES: COc1ccc(-c2nocc2-c2cc(OC)c(OC)c(OC)c2)cc1
- growth at 0.01 µM [1]: 88%
- GI50 ([2]; read-out: GI50): 296 nM
- LC50 ([2]; read-out: LC50): > 100 µM
- TGI ([2]; read-out: TGI): > 100 µM
- GI50 ([2]; read-out: pGI50 (converted)): 295 nM
- LC50 ([2]; read-out: pLC50 (converted)): > 100 µM
- TGI ([2]; read-out: pTGI): > 100 µM
- growth at 0.01 µM [3]: 90%
- growth at 0.01 µM [4]: 92%
- growth at 10 µM [5]: 67%
- growth at 10 µM [6]: 19%
- GI50 ([7]; read-out: GI50): 79.2 nM
- CC50 [7, 32]: > 100 µM
- TGI ([7]; read-out: TGI): 43.1 µM
- GI50 ([7]; read-out: pGI50 (converted)): 79.4 nM
- CC50 [7, 33]: > 100 µM
- TGI ([7]; read-out: pTGI (converted)): 42.7 µM
- growth at 0.01 µM [8]: 94%
- growth at 100 µM [9]: 1%
- growth at 10 µM [10]: 3%
- GI50 ([11]; read-out: GI50): 23.9 nM
- CC50 [11, 32]: > 100 µM
- TGI ([11]; read-out: TGI): 130 nM
- GI50 ([11]; read-out: pGI50 (converted)): 24 nM
- CC50 [11, 33]: > 100 µM
- TGI ([11]; read-out: pTGI (converted)): 129 nM
- growth at 100 µM [12]: -5%
- growth at 0.1 µM [13]: 88%
- GI50 ([14]; read-out: GI50): 47.1 nM
- LC50 (50% lethal concentration) ([14]; read-out: LC50): > 100 µM
- TGI ([14]; read-out: TGI): > 100 µM
- GI50 ([14]; read-out: pGI50 (converted)): 46.8 nM
- LC50 (50% lethal concentration) ([14]; read-out: pLC50 (converted)): > 100 µM
- TGI ([14]; read-out: pTGI): > 100 µM
- growth at 100 µM [15]: 21%
- growth at 10 µM [16]: 13%
- growth at 10 µM [17]: 5%
- growth at 10 µM [18]: 17%
- growth at 10 µM [19]: 22%
- growth at 1 µM [20]: 11%
- growth at 10 µM [21]: 32%
- growth at 100 µM [22]: -7%
- GI50 ([23]; read-out: GI50): 176 nM
- CC50 [23, 32]: > 100 µM
- TGI ([23]; read-out: TGI): 18.9 µM
- GI50 ([23]; read-out: pGI50 (converted)): 178 nM
- CC50 [23, 33]: > 100 µM
- TGI ([23]; read-out: pTGI (converted)): 19.1 µM
- growth at 1 µM [24]: 1%
- growth at 0.01 µM [25]: 74%
- growth at 10 µM [26]: 19%
- growth at 10 µM [27]: 9%
- growth at 0.1 µM [28]: 32%
- growth at 0.1 µM [29]: 40%
- growth at 1 µM [30]: -17%
- growth at 100 µM [31]: 10%
